Data: the supplement of paper PMC10307832

Columns and labels:
Assay in all cases: relative viability (nuclei count vs DMSO), 5 days (fraction); higher = more cells survive
H3255 = tested on: H3255
How it was run: (§1)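 Lung cancer cell lines, seeded in 1536-well plates, were treated the following day by pin tool with a single drug or with five library-drug doses (not always all listed) in √10 steps on top of a fixed anchor-drug dose. Cells were fixed and nuclei stained in one step after 5 days, and nuclei were counted. Relative viability is the nuclei count for treated wells divided by that for vehicle wells, reported as medians of duplicate plates.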

COR-L 105 = tested on: COR-L 105
How it was run: as §1

SK-LU-1 = tested on: SK-LU-1
How it was run: as §1

NCI-H1993 = tested on: NCI-H1993
How it was run: as §1

HCC-366 = tested on: HCC-366
How it was run: as §1

NCI-H1975 = tested on: NCI-H1975
How it was run: as §1

NCI-H1395 = tested on: NCI-H1395
How it was run: as §1

PC-14 = tested on: PC-14
How it was run: as §1

LU99A = tested on: LU99A
How it was run: as §1

HCC-15 = tested on: HCC-15
How it was run: as §1

PC-3 [JPC-3] = tested on: PC-3 [JPC-3]
How it was run: as §1

COCC1(CO)C(=O)C2CCN1CC2 (stereo not drawn) [PRIMA-1MET] + Cc1nc(Nc2ncc(C(=O)Nc3c(C)cccc3Cl)s2)cc(N2CCN(CCO)CC2)n1 [Dasatinib] (partner 0.075 µM)
relative viability (H3255; first compound 2 µM): 0.487 | relative viability (H3255; first compound 6.325 µM): 0.373 | relative viability (H3255; first compound 20 µM): 0.28 | relative viability (COR-L 105; first compound 0.2 µM): 0.346 | relative viability (COR-L 105; first compound 0.6325 µM): 0.404 | relative viability (COR-L 105; first compound 2 µM): 0.292 | relative viability (COR-L 105; first compound 6.325 µM): 0.161 | relative viability (COR-L 105; first compound 20 µM): 0.091 | relative viability (SK-LU-1; first compound 0.2 µM): 0.192 | relative viability (SK-LU-1; first compound 0.6325 µM): 0.177 | relative viability (SK-LU-1; first compound 2 µM): 0.186 | relative viability (SK-LU-1; first compound 6.325 µM): 0.155 | relative viability (SK-LU-1; first compound 20 µM): 0.0741 | relative viability (NCI-H1993; first compound 0.2 µM): 0.596 | relative viability (NCI-H1993; first compound 0.6325 µM): 0.587 | relative viability (NCI-H1993; first compound 2 µM): 0.574 | relative viability (NCI-H1993; first compound 6.325 µM): 0.554 | relative viability (NCI-H1993; first compound 20 µM): 0.582 | relative viability (HCC-366; first compound 0.2 µM): 0.854 | relative viability (HCC-366; first compound 0.6325 µM): 0.527 | relative viability (HCC-366; first compound 2 µM): 0.619 | relative viability (HCC-366; first compound 6.325 µM): 0.67 | relative viability (HCC-366; first compound 20 µM): 0.318 | relative viability (NCI-H1975; first compound 0.2 µM): 0.359 | relative viability (NCI-H1975; first compound 0.6325 µM): 0.349 | relative viability (NCI-H1975; first compound 2 µM): 0.366 | relative viability (NCI-H1975; first compound 6.325 µM): 0.375 | relative viability (NCI-H1975; first compound 20 µM): 0.19 | relative viability (NCI-H1395; first compound 0.2 µM): 0.409 | relative viability (NCI-H1395; first compound 0.6325 µM): 0.458 | relative viability (NCI-H1395; first compound 2 µM): 0.493 | relative viability (NCI-H1395; first compound 6.325 µM): 0.38 | relative viability (NCI-H1395; first compound 20 µM): 0.396 | relative viability (PC-14; first compound 0.2 µM): 0.249 | relative viability (PC-14; first compound 0.6325 µM): 0.249 | relative viability (PC-14; first compound 2 µM): 0.276 | relative viability (PC-14; first compound 6.325 µM): 0.249 | relative viability (PC-14; first compound 20 µM): 0.0176 | relative viability (LU99A; first compound 0.2 µM): 0.612 | relative viability (LU99A; first compound 0.6325 µM): 0.513 | relative viability (LU99A; first compound 2 µM): 0.586 | relative viability (LU99A; first compound 6.325 µM): 0.671 | relative viability (LU99A; first compound 20 µM): 0.0333 | relative viability (HCC-15; first compound 0.2 µM): 0.732 | relative viability (HCC-15; first compound 0.6325 µM): 0.628 | relative viability (HCC-15; first compound 2 µM): 0.639 | relative viability (HCC-15; first compound 6.325 µM): 0.625 | relative viability (HCC-15; first compound 20 µM): 0.181 | relative viability (PC-3 [JPC-3]; first compound 0.2 µM): 0.977 | relative viability (PC-3 [JPC-3]; first compound 0.6325 µM): 0.977 | relative viability (PC-3 [JPC-3]; first compound 2 µM): 0.96 | relative viability (PC-3 [JPC-3]; first compound 6.325 µM): 0.933 | relative viability (PC-3 [JPC-3]; first compound 20 µM): 0.971
